# Measured values published in patent publication US6737383B1, “Herbicidal oxadiazolidines” (priority 1999, dated 2004).
# What was measured:
# surinam grass = test: Test B pre/postemergence surinam grass; type: in vivo, Brachiaria decumbens
# How it was run: (§1)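 Herbicidal effect was estimated by eye on a ten-point control scale after plants spent twelve to sixteen days in a greenhouse following soil or foliar treatment. Foliar sprays targeted plants at one to four leaves; all doses were formulated in a non-phytotoxic solvent with surfactant.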
# sugar beet = test: Test B pre/postemergence sugar beet; type: in vivo, Beta vulgaris
# How it was run: as §1
# bamyardgrass = test: Test B flood test barnyardgrass; type: in vivo, Echinochloa crus-galli
# How it was run: (§2)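 Read-out is a visual response score from 0 (no effect) to 10 (complete control), assigned by comparison with untreated controls. Treatment was applied at the 2-leaf stage, and plants stayed in the greenhouse for twelve to sixteen days before scoring.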
# rape = test: Test B pre/postemergence rape; type: in vivo, Brassica napus
# How it was run: as §1
# purple nutsedge = test: Test B pre/postemergence purple nutsedge; type: in vivo, Cyperus rotundus
# How it was run: as §1
# corn = test: Test B pre/postemergence corn; type: in vivo, Zea mays
# How it was run: as §1
# wheat = test: Test B pre/postemergence wheat; type: in vivo, Triticum aestivum
# How it was run: as §1
# bedstraw = test: Test B pre/postemergence bedstraw; type: in vivo, Galium aparine
# How it was run: as §1
# pigweed = test: Test B pre/postemergence pigweed; type: in vivo, Amaranthus retroflexus
# How it was run: as §1
# velvetleaf = test: Test B pre/postemergence velvetleaf; type: in vivo, Abutilon theophrasti
# How it was run: as §1
# smallflower flatsedge = test: Test B flood test smallflower flatsedge; type: in vivo, Cyperus difformis
# How it was run: as §2
# blackgrass = test: Test B pre/postemergence blackgrass; type: in vivo, Alopecurus myosuroides
# How it was run: as §1
# wild oat = test: Test B pre/postemergence wild oat; type: in vivo, Avena fatua
# How it was run: as §1
# morningglory = test: Test B pre/postemergence morningglory; type: in vivo, Ipomoea hederacea
# How it was run: as §1
# crabgrass = test: Test B pre/postemergence crabgrass; type: in vivo, Digitaria sanguinalis
# How it was run: as §1
# duck salad = test: Test B flood test duck salad; type: in vivo, Heteranthera limosa
# How it was run: as §2
# giant foxtail = test: Test B pre/postemergence giant foxtail; type: in vivo, Setaria faberii
# How it was run: as §1
# cocklebur = test: Test B pre/postemergence cocklebur; type: in vivo, Xanthium strumarium
# How it was run: as §1
# rice = test: Test B flood test rice; type: in vivo, Oryza sativa
# How it was run: as §2
# soybean = test: Test B pre/postemergence soybean; type: in vivo, Glycine max
# How it was run: as §1
# [1] = Preemergence, Rate 62 g/ha, scale of 0 to 10 where 0 is no effect and 10 is complete control
# [2] = Preemergence, Rate 250 g/ha, scale of 0 to 10 where 0 is no effect and 10 is complete control
# [3] = Preemergence, Rate 500 g/ha, scale of 0 to 10 where 0 is no effect and 10 is complete control
# [4] = Rate 62 g/ha, Postemergence, scale of 0 to 10 where 0 is no effect and 10 is complete control
# [5] = Rate 125 g/ha, Preemergence, scale of 0 to 10 where 0 is no effect and 10 is complete control
# [6] = Rate 500 g/ha, Postemergence, scale 0 to 10, 0 no effect, 10 complete control
# [7] = Rate 62 g/ha, headed Pre-emergence (flood test species), scale 0 to 10 (0 no effect, 10 complete control)
# [8] = Rate 125 g/ha, Pre-emergence, flood test species, scale 0 to 10 where 0 is no effect and 10 is complete control
# [9] = Rate 250 g/ha, Pre-emergence, flood-test species, scale 0 to 10, 0 is no effect, 10 is complete control
# [10] = Rate 500 g/ha, Pre-emergence, flood test species, scale 0 to 10 (0 no effect, 10 complete control)
# [11] = Rate 125 g/ha, Postemergence, scale 0 to 10
compound,measurement,setting,value
CC(C)N(C(=O)n1oc(=O)n(CC(=O)OC(C)(C)C)c1=O)c1ccc(F)cc1 [Compound 265],B. signalgrass plant response rating,surinam grass; [1],0
same,B. signalgrass plant response rating,surinam grass; [2],0
same,"Plant response rating, B. signalgrass",surinam grass; [3],4
same,B. signalgrass plant response rating,surinam grass; [4],0
same,B. signalgrass plant response rating,"surinam grass; Rate 125 g/ha, Postemergence, scale 0 (no effect) to 10 (complete control)",0
same,B. signalgrass plant response rating,surinam grass; [5],0
same,"Plant response rating (0 to 10; 0 is no effect, 10 is complete control), B. signalgrass","surinam grass; Rate 250 g/ha, Postemergence",0
same,B. signalgrass plant response rating,surinam grass; [6],0
same,Sugarbeets plant response rating,sugar beet; [1],0
same,Sugarbeets plant response rating,sugar beet; [2],0
same,"Plant response rating, Sugarbeets",sugar beet; [3],0
same,Sugarbeets plant response rating,sugar beet; [5],0
same,Sugarbeets plant response rating,sugar beet; [6],3
same,Barnyardgrass plant response rating,bamyardgrass; [7],0
same,Barnyardgrass plant response rating,bamyardgrass; [8],0
same,Barnyardgrass plant response rating,bamyardgrass; [9],0
same,Barnyardgrass plant response rating,bamyardgrass; [10],0
same,Rape plant response rating,rape; [1],0
same,Rape plant response rating,rape; [2],0
same,"Plant response rating, Rape",rape; [3],0
same,Rape plant response rating,rape; [5],0
same,"Plant response rating (0 to 10; 0 is no effect, 10 is complete control), Rape","rape; Rate 250 g/ha, Postemergence",1
same,Rape plant response rating,rape; [6],3
same,Nutsedge plant response rating,purple nutsedge; [1],0
same,Nutsedge plant response rating,purple nutsedge; [2],0
same,"Plant response rating, Nutsedge",purple nutsedge; [3],0
same,"Plant response rating (0 to 10; 0 is no effect, 10 is complete control), Nutsedge","purple nutsedge; Rate 250 g/ha, Postemergence",0
same,Nutsedge plant response rating,purple nutsedge; [6],0
same,Corn plant response rating,corn; [1],0
same,Corn plant response rating,corn; [2],0
same,"Plant response rating, Corn",corn; [3],0
same,Corn plant response rating,corn; [4],0
same,Corn plant response rating,corn; [11],0
same,Corn plant response rating,corn; [5],0
same,"Plant response rating (0 to 10; 0 is no effect, 10 is complete control), Corn","corn; Rate 250 g/ha, Postemergence",0
same,Corn plant response rating,corn; [6],0
same,Wheat plant response rating,wheat; [1],0
same,Wheat plant response rating,wheat; [2],0
same,"Plant response rating, Wheat",wheat; [3],1
same,Wheat plant response rating,wheat; [5],0
same,Wheat plant response rating,wheat; [6],0
same,Bedstraw plant response rating,bedstraw; [1],0
same,Bedstraw plant response rating,bedstraw; [2],0
same,"Plant response rating, Bedstraw",bedstraw; [3],0
same,Bedstraw plant response rating,bedstraw; [4],0
same,Bedstraw plant response rating,bedstraw; [11],2
same,Bedstraw plant response rating,bedstraw; [5],0
same,"Plant response rating (0 to 10; 0 is no effect, 10 is complete control), Bedstraw","bedstraw; Rate 250 g/ha, Postemergence",3
same,Bedstraw plant response rating,bedstraw; [6],8
same,Redroot pigweed plant response rating,pigweed; [1],0
same,Redroot pigweed plant response rating,pigweed; [2],0
same,"Plant response rating, Redroot pigweed",pigweed; [3],0
same,Redroot pigweed plant response rating,pigweed; [5],0
same,"Plant response rating (0 to 10; 0 is no effect, 10 is complete control), Redroot pigweed","pigweed; Rate 250 g/ha, Postemergence",3
same,Redroot pigweed plant response rating,pigweed; [6],4
same,Velvetleaf plant response rating,velvetleaf; [1],0
same,Velvetleaf plant response rating,velvetleaf; [2],0
same,"Plant response rating, Velvetleaf",velvetleaf; [3],0
same,Velvetleaf plant response rating,velvetleaf; [5],0
same,Velvetleaf plant response rating,velvetleaf; [6],3
same,S. Flatsedge plant response rating,smallflower flatsedge; [7],0
same,S. Flatsedge plant response rating,smallflower flatsedge; [8],0
same,S. Flatsedge plant response rating,smallflower flatsedge; [9],0
same,S. Flatsedge plant response rating,smallflower flatsedge; [10],0
same,Blackgrass plant response rating,blackgrass; [1],0
same,Blackgrass plant response rating,blackgrass; [2],0
same,Blackgrass plant response rating,blackgrass; [4],4
same,Blackgrass plant response rating,blackgrass; [11],4
same,"Plant response rating (0 to 10; 0 is no effect, 10 is complete control), Blackgrass","blackgrass; Rate 250 g/ha, Postemergence",5
same,Blackgrass plant response rating,blackgrass; [6],7
same,Wild oats plant response rating,wild oat; [1],0
same,Wild oats plant response rating,wild oat; [2],2
same,"Plant response rating, Wild oats",wild oat; [3],5
same,Wild oats plant response rating,wild oat; [5],0
same,Wild oats plant response rating,wild oat; [6],0
same,Morningglory plant response rating,morningglory; [1],0
same,Morningglory plant response rating,morningglory; [2],0
same,"Plant response rating, Morningglory",morningglory; [3],0
same,Morningglory plant response rating,morningglory; [5],0
same,"Plant response rating (0 to 10; 0 is no effect, 10 is complete control), Morningglory","morningglory; Rate 250 g/ha, Postemergence",6
same,Morningglory plant response rating,morningglory; [6],8
same,Crabgrass plant response rating,crabgrass; [1],1
same,Crabgrass plant response rating,crabgrass; [2],2
same,"Plant response rating, Crabgrass",crabgrass; [3],6
same,Crabgrass plant response rating,crabgrass; [5],2
same,"Plant response rating (0 to 10; 0 is no effect, 10 is complete control), Crabgrass","crabgrass; Rate 250 g/ha, Postemergence",2
same,Crabgrass plant response rating,crabgrass; [6],3
same,Ducksalad plant response rating,duck salad; [7],0
same,Ducksalad plant response rating,duck salad; [8],0
same,Ducksalad plant response rating,duck salad; [9],0
same,Ducksalad plant response rating,duck salad; [10],0
same,Giant foxtail plant response rating,giant foxtail; [1],6
same,Giant foxtail plant response rating,giant foxtail; [2],8
same,"Plant response rating, Giant foxtail",giant foxtail; [3],10
same,Giant foxtail plant response rating,giant foxtail; [5],8
same,"Plant response rating (0 to 10; 0 is no effect, 10 is complete control), Giant foxtail","giant foxtail; Rate 250 g/ha, Postemergence",2
same,Giant foxtail plant response rating,giant foxtail; [6],2
same,Cocklebur plant response rating,cocklebur; [1],0
same,Cocklebur plant response rating,cocklebur; [2],0
same,Cocklebur plant response rating,cocklebur; [4],0
same,Cocklebur plant response rating,cocklebur; [11],0
same,Cocklebur plant response rating,cocklebur; [5],0
same,"Plant response rating (0 to 10; 0 is no effect, 10 is complete control), Cocklebur","cocklebur; Rate 250 g/ha, Postemergence",0
same,Cocklebur plant response rating,cocklebur; [6],0
same,Rice plant response rating,rice; [7],0
same,Rice plant response rating,rice; [8],0
same,Rice plant response rating,rice; [9],0
same,Rice plant response rating,rice; [10],0
same,Soybean plant response rating,soybean; [1],0
same,Soybean plant response rating,soybean; [2],0
same,"Plant response rating, Soybean",soybean; [3],0
same,Soybean plant response rating,soybean; [5],0
same,Soybean plant response rating,soybean; [6],4
